In ChEMBL document CHEMBL4330071 (Eur J Med Chem, 2019):

Columns and labels:
[1] = target: RAC-alpha serine/threonine-protein kinase (Homo sapiens) (UniProt P31749); experiment: Inhibition of human AKT1 assessed as residual activity at 10 uM using KGSGSGRPRTSSFAEG as substrate preincubated for 20 mins followed by [gamma-33P]-ATP addition and measured after 120 mins by Hotspot assay relative to control
[2] = target: Serine/threonine-protein kinase B-raf (Homo sapiens) (UniProt P15056); experiment: Inhibition of human BRAF assessed as residual activity at 10 uM using MEK1 (K97R) as substrate preincubated for 20 mins followed by [gamma-33P]-ATP addition and measured after 120 mins by Hotspot assay relative to control
[3] = target: CDC7/DBF4 (Cell division cycle 7-related protein kinase/Activator of S phase kinase) (Homo sapiens) (UniProt Q9UBU7+O00311); experiment: Inhibition of human CDC7/DBF4 assessed as residual activity at 10 uM using KTFCGTPEYLAPEVRREPRILSEEEQEMFRDFDYIADWC as substrate preincubated for 20 mins followed by [gamma-33P]-ATP addition and measured after 120 mins by Hotspot assay relative to control; assay type: protein-complex assay
[4] = target: Glycogen synthase kinase-3 beta (Homo sapiens) (UniProt P49841); experiment: Inhibition of human GSK3B assessed as residual activity at 10 uM using YRRAAVPPSPSLSRHSSPHQ(pS)EDEEE as substrate preincubated for 20 mins followed by [gamma-33P]-ATP addition and measured after 120 mins by Hotspot assay relative to control
[5] = target: Mitogen-activated protein kinase kinase kinase 1 (Homo sapiens) (UniProt Q13233); experiment: Inhibition of human MEKK1 assessed as residual activity at 10 uM using MBP as substrate preincubated for 20 mins followed by [gamma-33P]-ATP addition and measured after 120 mins by Hotspot assay relative to control
[6] = target: Serine/threonine-protein kinase Nek2 (Homo sapiens) (UniProt P51955); experiment: Inhibition of human NEK2 assessed as residual activity at 10 uM using MBP as substrate preincubated for 20 mins followed by [gamma-33P]-ATP addition and measured after 120 mins by Hotspot assay relative to control
[7] = target: T1, Tyrosine-protein kinase ABL1 (Homo sapiens, UniProt P00519, F317I); experiment: Binding affinity to human non-phosphorylated ABL1 F317I mutant (S229 to K512 residues) expressed in mammalian expression system after 60 mins by Kinomescan method
[8] = target: T1, Tyrosine-protein kinase ABL1; experiment: Binding affinity to human phosphorylated ABL1 F317I mutant (S229 to K512 residues) expressed in mammalian expression system after 60 mins by Kinomescan method
[9] = target: Tyrosine-protein kinase ABL1 (Homo sapiens, UniProt P00519, H396P); experiment: Binding affinity to human phosphorylated ABL1 H396P mutant (S229 to K512 residues) expressed in mammalian expression system after 60 mins by Kinomescan method
[10] = target: Tyrosine-protein kinase ABL1 (Homo sapiens, UniProt P00519, T315I); experiment: Binding affinity to human non-phosphorylated ABL1 T315I mutant (S229 to K512 residues) expressed in mammalian expression system after 60 mins by Kinomescan method
[11] = target: T2, Tyrosine-protein kinase ABL1 (Homo sapiens, UniProt P00519); experiment: Binding affinity to wild-type human non-phosphorylated ABL1 (S229 to K512 residues) expressed in mammalian expression system after 60 mins by Kinomescan method
[12] = target: T2, Tyrosine-protein kinase ABL1; experiment: Inhibition of human ABL1 using EAIYAAPFAKKK as substrate preincubated for 20 mins followed by [gamma-33P]-ATP addition and measured after 120 mins by Hotspot assay
[13] = target: Fibroblast growth factor receptor 1 (Homo sapiens, UniProt P11362); experiment: Inhibition of human FGFR1 using KKKSPGEYVNIEFG as substrate preincubated for 20 mins followed by [gamma-33P]-ATP addition and measured after 120 mins by Hotspot assay
[14] = target: Serine/threonine-protein kinase Nek2 (Homo sapiens, UniProt P51955); experiment: Inhibition of human NEK2 using MBP as substrate preincubated for 20 mins followed by [gamma-33P]-ATP addition and measured after 120 mins by Hotspot assay
[15] = target: Tyrosine-protein kinase BTK (Homo sapiens, UniProt Q06187); experiment: Inhibition of human BTK using KVEKIGEGTYGVVYK as substrate preincubated for 20 mins followed by [gamma-33P]-ATP addition and measured after 120 mins by Hotspot assay
[16] = target: Proto-oncogene tyrosine-protein kinase Src (Homo sapiens, UniProt P12931); experiment: Inhibition of human c-SRC using poly[Glu:Tyr] (4:1) as substrate preincubated for 20 mins followed by [gamma-33P]-ATP addition and measured after 120 mins by Hotspot assay
[17] = target: ALK tyrosine kinase receptor (Homo sapiens, UniProt Q9UM73); experiment: Inhibition of human ALK using poly[Glu:Tyr] (4:1) as substrate preincubated for 20 mins followed by [gamma-33P]-ATP addition and measured after 120 mins by Hotspot assay
[18] = target: Cyclin-dependent kinase 4/cyclin D1 (Homo sapiens, UniProt P11802); experiment: Inhibition of human CDK4/cyclin-D1 using RB protein as substrate preincubated for 20 mins followed by [gamma-33P]-ATP addition and measured after 120 mins by Hotspot assay; assay type: protein-complex assay
RS4-11 = experiment: Growth inhibition of human RS4:11 cells harboring WT FLT3 at 10 uM after 72 hrs by CellTiter-Glo assay relative to control; assay type: functional; settings: RS4-11, 72 h, read-out: GI
MCF7 = experiment: Growth inhibition of human MCF7 cells at 10 uM after 72 hrs by CellTiter-Glo assay relative to control; assay type: functional; settings: MCF7, 72 h, read-out: GI
SMMC-7721 = experiment: Growth inhibition of human SMMC7721 cells at 10 uM after 72 hrs by CellTiter-Glo assay relative to control; assay type: functional; settings: SMMC-7721, 72 h, read-out: GI
PBMC = experiment: Cytotoxicity against human PBMC at 1 uM after 72 hrs by MTT assay; assay type: cell-based
MV4-11 [19] = experiment: Induction of apoptosis in human MV4-11 cells assessed as viable cells at 0.02 uM after 24 hrs by Annexin V-FITC/propidium iodide staining based flow cytometric analysis (reference value: 95.19%); assay type: functional; settings: MV4-11, 24 h, read-out: Activity
MV4-11 [20] = experiment: Induction of apoptosis in human MV4-11 cells assessed as viable cells at 0.05 uM after 24 hrs by Annexin V-FITC/propidium iodide staining based flow cytometric analysis (reference value: 95.19%); assay type: functional; settings: MV4-11, 24 h, read-out: Activity
MV4-11 [21] = experiment: Induction of apoptosis in human MV4-11 cells assessed as viable cells at 0.2 uM after 24 hrs by Annexin V-FITC/propidium iodide staining based flow cytometric analysis (reference value: 95.19%); assay type: functional; settings: MV4-11, 24 h, read-out: Activity
MV4-11 [22] = experiment: Induction of apoptosis in human MV4-11 cells assessed as early apoptotic cells at 1 uM after 24 hrs by Annexin V-FITC/propidium iodide staining based flow cytometric analysis (reference value: 3.39%); assay type: functional
MV4-11 [23] = experiment: Induction of apoptosis in human MV4-11 cells assessed as necrotic cells at 1 uM after 24 hrs by Annexin V-FITC/propidium iodide staining based flow cytometric analysis (reference value: 0%); assay type: functional

Chain of Cyclin-dependent kinase 4/cyclin D1 (P11802 whole entry): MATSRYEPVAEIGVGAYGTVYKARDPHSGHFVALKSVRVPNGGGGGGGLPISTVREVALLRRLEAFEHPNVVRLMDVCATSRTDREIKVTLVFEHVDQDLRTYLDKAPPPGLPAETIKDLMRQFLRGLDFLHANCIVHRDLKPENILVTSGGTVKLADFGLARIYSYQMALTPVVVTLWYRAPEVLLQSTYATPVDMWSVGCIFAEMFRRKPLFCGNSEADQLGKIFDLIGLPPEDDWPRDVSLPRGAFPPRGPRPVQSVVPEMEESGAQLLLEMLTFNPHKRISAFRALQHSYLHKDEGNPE
Chain of Cyclin-dependent kinase 4/cyclin D1 (P24385 whole entry, further chain): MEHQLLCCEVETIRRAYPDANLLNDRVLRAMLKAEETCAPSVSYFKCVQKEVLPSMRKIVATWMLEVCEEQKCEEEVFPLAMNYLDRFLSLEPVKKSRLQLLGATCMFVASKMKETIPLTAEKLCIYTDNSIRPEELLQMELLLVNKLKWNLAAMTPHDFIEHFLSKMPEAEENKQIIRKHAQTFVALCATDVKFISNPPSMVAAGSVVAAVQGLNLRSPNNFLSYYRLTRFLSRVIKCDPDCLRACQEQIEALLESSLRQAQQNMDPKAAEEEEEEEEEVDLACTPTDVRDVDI
Chain of Tyrosine-protein kinase BTK (Q06187 whole entry): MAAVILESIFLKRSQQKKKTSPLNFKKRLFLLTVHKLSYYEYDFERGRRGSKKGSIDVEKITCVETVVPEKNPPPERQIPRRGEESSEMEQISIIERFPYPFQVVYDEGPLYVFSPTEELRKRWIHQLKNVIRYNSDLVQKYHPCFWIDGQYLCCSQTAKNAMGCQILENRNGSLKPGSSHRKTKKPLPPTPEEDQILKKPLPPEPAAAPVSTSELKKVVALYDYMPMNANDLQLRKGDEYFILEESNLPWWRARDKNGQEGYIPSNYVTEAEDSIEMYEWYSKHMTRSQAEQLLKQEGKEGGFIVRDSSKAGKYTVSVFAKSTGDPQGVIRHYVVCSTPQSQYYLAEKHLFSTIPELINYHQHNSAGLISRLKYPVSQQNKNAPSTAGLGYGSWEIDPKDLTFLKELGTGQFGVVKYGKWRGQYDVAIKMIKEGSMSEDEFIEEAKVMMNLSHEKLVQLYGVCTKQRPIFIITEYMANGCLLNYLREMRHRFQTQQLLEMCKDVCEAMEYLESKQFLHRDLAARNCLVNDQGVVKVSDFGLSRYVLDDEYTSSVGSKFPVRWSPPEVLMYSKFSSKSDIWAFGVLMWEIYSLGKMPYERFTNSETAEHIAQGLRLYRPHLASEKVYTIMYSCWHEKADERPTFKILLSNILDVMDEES
Chain of CDC7/DBF4 (Cell division cycle 7-related protein kinase/Activator of S phase kinase) (Homo sapiens) (O00311 whole entry, looked up): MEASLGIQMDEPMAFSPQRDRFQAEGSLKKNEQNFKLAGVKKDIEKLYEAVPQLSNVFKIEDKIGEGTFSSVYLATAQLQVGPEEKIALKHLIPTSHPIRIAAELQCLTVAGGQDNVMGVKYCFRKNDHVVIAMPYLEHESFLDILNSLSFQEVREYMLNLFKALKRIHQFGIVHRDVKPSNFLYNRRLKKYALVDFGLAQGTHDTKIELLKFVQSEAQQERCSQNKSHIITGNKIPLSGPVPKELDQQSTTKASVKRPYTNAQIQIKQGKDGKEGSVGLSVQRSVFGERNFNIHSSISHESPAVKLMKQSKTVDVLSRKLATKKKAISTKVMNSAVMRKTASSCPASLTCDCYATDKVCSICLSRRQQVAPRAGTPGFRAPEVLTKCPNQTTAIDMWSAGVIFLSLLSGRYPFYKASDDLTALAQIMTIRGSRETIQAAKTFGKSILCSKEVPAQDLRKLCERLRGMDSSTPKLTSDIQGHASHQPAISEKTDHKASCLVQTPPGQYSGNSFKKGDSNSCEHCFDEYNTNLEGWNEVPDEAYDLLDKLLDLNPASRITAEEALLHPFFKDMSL
Chain of CDC7/DBF4 (Cell division cycle 7-related protein kinase/Activator of S phase kinase) (Homo sapiens) (Q9UBU7 whole entry, looked up): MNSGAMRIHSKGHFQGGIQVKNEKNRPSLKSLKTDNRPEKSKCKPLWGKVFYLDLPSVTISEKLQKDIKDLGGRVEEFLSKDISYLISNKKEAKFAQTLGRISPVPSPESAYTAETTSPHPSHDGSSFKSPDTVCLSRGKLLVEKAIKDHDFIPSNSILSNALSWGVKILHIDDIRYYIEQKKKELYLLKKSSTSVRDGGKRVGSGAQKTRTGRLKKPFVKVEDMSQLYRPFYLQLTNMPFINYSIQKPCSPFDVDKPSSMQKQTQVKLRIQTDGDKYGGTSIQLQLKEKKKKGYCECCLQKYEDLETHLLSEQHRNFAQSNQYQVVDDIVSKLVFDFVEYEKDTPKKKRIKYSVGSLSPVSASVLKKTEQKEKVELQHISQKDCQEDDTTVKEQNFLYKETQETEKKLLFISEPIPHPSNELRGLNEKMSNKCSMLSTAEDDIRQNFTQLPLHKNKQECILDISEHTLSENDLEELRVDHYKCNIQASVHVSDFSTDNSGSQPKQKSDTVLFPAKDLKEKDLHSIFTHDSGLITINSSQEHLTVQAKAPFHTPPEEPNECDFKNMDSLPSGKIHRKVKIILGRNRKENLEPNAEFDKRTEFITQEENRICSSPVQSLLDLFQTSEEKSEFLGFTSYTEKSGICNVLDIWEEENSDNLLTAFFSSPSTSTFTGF
Chain of Glycogen synthase kinase-3 beta (Homo sapiens) (P49841 whole entry, looked up): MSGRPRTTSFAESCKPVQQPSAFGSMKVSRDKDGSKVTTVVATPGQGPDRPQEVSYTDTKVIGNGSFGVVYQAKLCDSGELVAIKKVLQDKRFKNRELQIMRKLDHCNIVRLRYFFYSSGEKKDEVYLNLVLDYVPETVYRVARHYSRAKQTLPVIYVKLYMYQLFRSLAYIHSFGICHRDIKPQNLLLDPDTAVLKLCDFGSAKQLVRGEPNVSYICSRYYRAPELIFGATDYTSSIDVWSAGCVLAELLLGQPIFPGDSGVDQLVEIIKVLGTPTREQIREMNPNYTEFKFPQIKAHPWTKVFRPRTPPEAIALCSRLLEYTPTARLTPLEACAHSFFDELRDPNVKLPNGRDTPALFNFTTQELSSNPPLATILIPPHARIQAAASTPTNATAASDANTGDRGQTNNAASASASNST
Chain of Serine/threonine-protein kinase B-raf (Homo sapiens) (P15056 whole entry): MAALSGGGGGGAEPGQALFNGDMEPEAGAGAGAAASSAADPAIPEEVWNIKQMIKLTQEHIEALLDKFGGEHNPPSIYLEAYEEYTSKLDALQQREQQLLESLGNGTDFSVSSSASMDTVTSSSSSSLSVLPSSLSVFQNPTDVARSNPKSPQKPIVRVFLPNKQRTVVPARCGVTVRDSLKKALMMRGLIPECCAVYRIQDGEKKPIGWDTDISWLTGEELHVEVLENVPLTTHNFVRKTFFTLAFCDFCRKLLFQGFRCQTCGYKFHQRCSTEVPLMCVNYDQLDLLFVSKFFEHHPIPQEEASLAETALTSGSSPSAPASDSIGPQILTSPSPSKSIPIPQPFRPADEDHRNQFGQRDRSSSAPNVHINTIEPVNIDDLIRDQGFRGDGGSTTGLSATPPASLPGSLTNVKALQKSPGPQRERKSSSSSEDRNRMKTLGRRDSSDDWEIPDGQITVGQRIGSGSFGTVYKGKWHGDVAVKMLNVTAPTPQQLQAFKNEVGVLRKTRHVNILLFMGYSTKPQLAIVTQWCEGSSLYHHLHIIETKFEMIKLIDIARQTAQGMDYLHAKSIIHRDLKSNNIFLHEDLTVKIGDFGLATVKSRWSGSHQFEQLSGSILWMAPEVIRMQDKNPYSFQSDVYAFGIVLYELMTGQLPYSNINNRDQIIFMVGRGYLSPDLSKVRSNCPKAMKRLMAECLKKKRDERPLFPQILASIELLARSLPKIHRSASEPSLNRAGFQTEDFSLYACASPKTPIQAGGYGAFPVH
Chain of Fibroblast growth factor receptor 1 (P11362 whole entry): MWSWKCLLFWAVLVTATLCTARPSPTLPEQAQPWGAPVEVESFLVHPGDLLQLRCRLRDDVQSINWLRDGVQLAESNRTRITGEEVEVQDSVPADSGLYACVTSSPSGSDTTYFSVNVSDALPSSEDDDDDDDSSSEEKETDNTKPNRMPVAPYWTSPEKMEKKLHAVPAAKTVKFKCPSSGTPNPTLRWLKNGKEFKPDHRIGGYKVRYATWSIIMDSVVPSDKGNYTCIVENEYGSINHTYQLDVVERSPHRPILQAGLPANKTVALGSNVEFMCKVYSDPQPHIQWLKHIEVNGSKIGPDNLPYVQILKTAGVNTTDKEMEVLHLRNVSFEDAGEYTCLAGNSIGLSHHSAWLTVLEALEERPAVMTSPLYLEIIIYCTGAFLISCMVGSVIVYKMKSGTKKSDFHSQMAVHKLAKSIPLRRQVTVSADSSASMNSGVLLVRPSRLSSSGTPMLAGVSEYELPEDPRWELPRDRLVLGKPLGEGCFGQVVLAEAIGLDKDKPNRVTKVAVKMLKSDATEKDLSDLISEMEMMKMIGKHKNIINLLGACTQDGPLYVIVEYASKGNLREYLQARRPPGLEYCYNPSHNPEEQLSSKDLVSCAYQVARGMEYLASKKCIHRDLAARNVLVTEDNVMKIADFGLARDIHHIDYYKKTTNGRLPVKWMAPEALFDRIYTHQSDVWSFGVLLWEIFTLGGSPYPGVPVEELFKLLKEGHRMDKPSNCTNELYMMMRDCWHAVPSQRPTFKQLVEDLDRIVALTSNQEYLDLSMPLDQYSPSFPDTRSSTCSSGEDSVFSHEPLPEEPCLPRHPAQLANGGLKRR
Chain of Serine/threonine-protein kinase Nek2 (P51955 whole entry): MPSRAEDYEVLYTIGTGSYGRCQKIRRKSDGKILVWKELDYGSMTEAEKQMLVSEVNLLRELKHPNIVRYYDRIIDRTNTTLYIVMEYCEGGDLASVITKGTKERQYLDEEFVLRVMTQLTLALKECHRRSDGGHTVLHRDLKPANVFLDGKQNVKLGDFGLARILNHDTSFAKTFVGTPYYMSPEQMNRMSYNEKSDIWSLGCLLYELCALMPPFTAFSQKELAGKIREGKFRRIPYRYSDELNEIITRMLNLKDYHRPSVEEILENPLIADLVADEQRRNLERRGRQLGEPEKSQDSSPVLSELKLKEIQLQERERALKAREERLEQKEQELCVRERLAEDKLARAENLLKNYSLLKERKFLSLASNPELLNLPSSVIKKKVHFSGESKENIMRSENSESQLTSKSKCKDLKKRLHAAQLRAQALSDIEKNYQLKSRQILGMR

CN1CCC(Nc2ccc(C(=O)Nc3cc(-c4cc(C#N)cs4)n[nH]3)cc2)CC1
Activity [1]: 90.7% | Activity [2]: 67.7% | Activity [3]: 101% | Activity [4]: 72.8% | Activity [5]: 66.2% | Activity [6]: 11% | Kd [7]: > 10000 nM | Kd [8]: > 10000 nM | Kd [9]: 390 nM | Kd [10]: 580 nM | Kd [11]: 370 nM | IC50 ([12]; read-out: IC50): 931 nM | IC50 ([12]; read-out: pIC50 (converted)): 1000 nM | IC50 [13]: 962 nM | IC50 [14]: 2090 nM | IC50 ([15]; read-out: IC50): 1640 nM | IC50 ([15]; read-out: pIC50 (converted)): 1580 nM | IC50 [16]: 2400 nM | IC50 [17]: 5140 nM | IC50 ([18]; read-out: IC50): > 10000 nM | IC50 ([18]; read-out: pIC50 (converted)): 10000 nM | inhibition of growth at 10 µM (RS4-11): 1.33% | inhibition of growth at 10 µM (MCF7): 0.83% | inhibition of growth at 10 µM (SMMC-7721): 1.47% | Activity (PBMC): Non-Toxic | viability at 0.02 µM (MV4-11 [19]): 68.6% | viability at 0.05 µM (MV4-11 [20]): 59.6% | viability at 0.2 µM (MV4-11 [21]): 48.8% | Activity (MV4-11 [22]): 31.43% | Activity (MV4-11 [23]): 6.35%
